The values that follow come from PubChem BioAssay (NCI).

Some test systems named below: BT-549 breast; MDA-MB-435; RPMI-8226 leukemia; ACHN renal; SF-539 CNS; NCI-H522 lung; EKVX NSCLC; OVCAR-8 ovarian; PC-3 prostate; SR leukemia; MDA-N.
Experiment in all cases: inhibition of tumour cell growth, NCI panel, 48 h

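96-well plates; 48 h exposure; 5 concentrations. Endpoints by linear interpolation between flanking doses. Not reached: highest tested concentration assigned. At the GI50, growth is halved. TGI is the concentration that stops growth completely.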

For `NCCCNc1nc2ccccc2c2c(=O)c3cc(C(F)(F)F)ccc3sc12`, the GI50 in the experiment with BT-549 breast is 7.3 µM; in the experiment with MDA-MB-435, 1.65 µM; in the experiment on RPMI-8226 leukemia, 2.06 µM; with ACHN renal, 1.59 µM; in the experiment on SF-539 CNS it was 1.71 µM. The TGI was 27.1 µM in the experiment on BT-549 breast; 3.06 µM with MDA-MB-435; 4.71 µM with RPMI-8226 leukemia; 2.94 µM with ACHN renal; 3.16 µM in the experiment on SF-539 CNS.

For `CCC1=CC2CN3CCc4c([nH]c5ccccc45)C(C(=O)OC)(C2)C13` (stereo not given), the TGI in the experiment with NCI-H522 lung came to 102 µM; in the experiment with EKVX NSCLC, 78.2 µM; in the experiment with OVCAR-8 ovarian, 14.7 µM; with RPMI-8226 leukemia, 137 µM; in the experiment with SF-539 CNS, 92.8 µM.

For `Cc1cc(C)nc(NS(=O)(=O)c2ccc(Nc3c4ccccc4nc4c(C(=O)NCCCN(CCO)CCO)cccc34)cc2)n1`, the TGI was 27.6 µM in the experiment on BT-549 breast; 40.6 µM with MDA-MB-435; 28.2 µM with NCI-H522 lung; above 100 µM with PC-3 prostate; above 100 µM with EKVX NSCLC; above 100 µM in the experiment with OVCAR-8 ovarian. The TGI with SR leukemia is above 100 µM; with RPMI-8226 leukemia, 79.6 µM; in the experiment with ACHN renal it was above 100 µM; in the experiment on MDA-N, 83.7 µM.

On to `COc1cc(C2C(Cl)C(=O)N2NC(=O)c2ccccc2O)ccc1O` (stereo not given), for which the TGI with NCI-H522 lung, in the experiment with OVCAR-8 ovarian, with ACHN renal and in the experiment on SF-539 CNS was above 100 µM in each case.

For `O=C1CN2Cc3cc(N4CCOCC4)ccc3N=C2N1`, the TGI in the experiment on BT-549 breast, in the experiment with MDA-MB-435, in the experiment with PC-3 prostate, with OVCAR-8 ovarian, in the experiment with SR leukemia and in the experiment on RPMI-8226 leukemia was above 100 µM in each case.

For `CC1(C23CC4CC(CC(C4)C2)C3)n2c(=O)n(-c3ccccc3)c(=O)n2C1(C)C12CC3CC(CC(C3)C1)C2` (stereo not given), the TGI in the experiment with BT-549 breast, with MDA-MB-435, in the experiment on PC-3 prostate, with EKVX NSCLC, in the experiment on OVCAR-8 ovarian and with SR leukemia was above 100 µM in each case. Besides, the TGI with RPMI-8226 leukemia, in the experiment with ACHN renal, in the experiment with MDA-N and with SF-539 CNS was above 100 µM each time.

With `CON(C)C(C#N)=C(C#N)C#N`, the TGI in the experiment with MDA-MB-435, with NCI-H522 lung, in the experiment on PC-3 prostate, in the experiment on EKVX NSCLC, with OVCAR-8 ovarian and with SR leukemia was above 10 µM each time. Moreover, the TGI with RPMI-8226 leukemia, with ACHN renal, in the experiment on MDA-N and in the experiment with SF-539 CNS was above 10 µM throughout.

On to `COc1nc(SC)nc2c1cnn2C1OC(C(O)CO)C(OC)C1O` (stereo not given), for which the TGI in the experiment with NCI-H522 lung, with EKVX NSCLC, in the experiment with OVCAR-8 ovarian, in the experiment with RPMI-8226 leukemia and in the experiment with SF-539 CNS was above 100 µM in each case.

As for `COCC1CCCN1c1ccc(/C=C(/C#N)C(N)=S)cc1` (stereo not given), the GI50 in the experiment on BT-549 breast was above 100 µM; in the experiment on MDA-MB-435, 15 µM; in the experiment on NCI-H522 lung, 12.7 µM; with EKVX NSCLC, above 100 µM; with OVCAR-8 ovarian it was above 100 µM; with ACHN renal it was above 100 µM. In addition, the GI50 with SF-539 CNS was above 100 µM. Also, the TGI with BT-549 breast was above 100 µM; with MDA-MB-435, above 100 µM; in the experiment on NCI-H522 lung, 61.4 µM; with EKVX NSCLC, above 100 µM; with OVCAR-8 ovarian, above 100 µM; in the experiment on ACHN renal it was above 100 µM. In the experiment with SF-539 CNS, this molecule yielded a TGI above 100 µM.

Consider `CCOC(=O)c1c(C)c2c(n1C)CCc1cn[nH]c1-2`, for which the TGI in the experiment with NCI-H522 lung, in the experiment on EKVX NSCLC, in the experiment with OVCAR-8 ovarian, in the experiment on RPMI-8226 leukemia and in the experiment with SF-539 CNS was above 100 µM in each case.

With `CCCCC(C)C1CCC2(C)C=CC(=O)C(C)=C2C1O` (stereo not given), the TGI with NCI-H522 lung, in the experiment on EKVX NSCLC, in the experiment with OVCAR-8 ovarian, with RPMI-8226 leukemia and in the experiment on SF-539 CNS was above 100 µM throughout.

Turning to `Cc1[nH]c(=O)nc(N/N=C/c2ccc(Cl)cc2)c1C(=O)NC(C)(CO)CO`, the TGI in the experiment with BT-549 breast, in the experiment with MDA-MB-435, with PC-3 prostate, in the experiment on EKVX NSCLC, with OVCAR-8 ovarian and in the experiment with SR leukemia was above 100 µM throughout. Also, the TGI in the experiment on RPMI-8226 leukemia, with ACHN renal and in the experiment with MDA-N was above 100 µM in each case.

With `CCOC(=O)c1csc(NC(=O)CCN2CCCCC2)n1`, the TGI in the experiment on MDA-MB-435, in the experiment on PC-3 prostate, in the experiment on EKVX NSCLC, with OVCAR-8 ovarian, in the experiment on SR leukemia and in the experiment on RPMI-8226 leukemia was above 100 µM throughout. The TGI in the experiment with ACHN renal, in the experiment with MDA-N and in the experiment with SF-539 CNS was above 100 µM in each case.

Regarding `CN1C2CC(=O)CC1[C@H](O)[C@@H]2O`, the TGI in the experiment on BT-549 breast, with MDA-MB-435, in the experiment on PC-3 prostate, with EKVX NSCLC, in the experiment with OVCAR-8 ovarian and with SR leukemia was above 100 µM in each case. Moreover, the TGI in the experiment on RPMI-8226 leukemia and in the experiment with MDA-N was above 100 µM in each case.
